Test results published in ChEMBL document CHEMBL5375972, “Discovery of Novel 2,3-Dihydro-1H-indene-5-sulfonamide NLRP3 Inflammasome Inhibitors Targeting Colon as a Potential Therapy for Colitis” (J Med Chem, 2023).
The source made the active and inactive calls. The rule behind the calls is not given here.

Key:
Mus musculus [1] = assay: Anti-inflammatory activity in DSS-induced ulcerative colitis C57BL/6 mouse model assessed as decrease in caspase-1 expression in colon at 10 mg/kg,ip administrated for 9 days by immunohistochemistry analysis; assay type: functional, organism-based; conditions: time 9.0 day
Mus musculus [2] = assay: Anti-inflammatory activity in DSS-induced ulcerative colitis C57BL/6 mouse model assessed as decrease in NLRP3 expression in colon at 10 mg/kg,ip administrated for 9 days by immunohistochemistry analysis; assay type: functional, organism-based; conditions: time 9.0 day
Mus musculus [3] = assay: Anti-inflammatory activity in C57BL/6 mouse assessed as inhibition of LPS-induced TNFF-alpha secretion at 10 mg/kg,ip administrated for 1 hr followed by LPS stimulation for 2.5 hrs by ELISA analysis; assay type: functional, organism-based
[4] = Stability of compound in rat liver measured for 48 hrs; assay type: ADME, tissue-based
[5] = biological target: NLR family CARD domain-containing protein 4 (Mus musculus) (UniProt Q3UP24); assay: Inhibition of NLRC4 inflammasome in mouse J774.A1 cells assessed as inhibition of LPS/flagellin-induced IL-1 beta secretion at 10 uM pretreated with LPS and compound for 1 hr followed by flagellin addition measured after 6 hrs by ELISA; assay type: cell-based; conditions: time 7.0 hrs
[6] = AUC (0-infinity) in Sprague-Dawley rat at 1 mg/kg,iv measured after 24 hrs by HPLC-MS/MS analysis; assay type: ADME, organism-based; parameters: time 24 hrs, dose 1 mg/kg, route iv; conditions: in vivo
[7] = Subacute toxicity in C57BL/6 mouse assessed as change in lung weight at 100 mg/kg,ip administrated for 14 days; assay type: organism-based; conditions: in vivo, 336 h, time 14 day
[8] = Acute toxicity in Kunming mouse model assessed as lethal dose at IG administration for 7 days; conditions: in vivo, po, time 7 day
[9] = Acute toxicity in Kunming mouse model assessed as ruffled fur at 2000 mg/kg,IG administration for 7 days; assay type: organism-based; conditions: in vivo, po, 168 h, time 7 day
[10] = Acute toxicity in Kunming mouse model assessed as lethargy at 1000 mg/kg,IG administration for 7 days; assay type: organism-based; conditions: in vivo, po, 168 h, time 7 day
[11] = Acute toxicity in Kunming mouse model assessed as anorexia at 1000 mg/kg,IG administration for 7 days; assay type: organism-based; conditions: in vivo, po, 168 h, time 7 day
Mus musculus [12] = assay: Anti-inflammatory activity in DSS-induced ulcerative colitis C57BL/6 mouse model assessed as decrease in caspase-1 p20 protein expression in colon at 10 mg/kg,ip administrated for 9 days by Western blotting analysis; assay type: functional, organism-based; conditions: time 9.0 day
[13] = Subacute toxicity in C57BL/6 mouse assessed as spleen histological changes at 100 mg/kg,ip administrated for 14 days; assay type: organism-based; conditions: in vivo, 336 h, time 14 day
[14] = Acute toxicity in Kunming mouse model assessed as anorexia at 2000 mg/kg,IG administration for 7 days; assay type: organism-based; conditions: in vivo, po, 168 h, time 7 day
[15] = Acute toxicity in Kunming mouse model assessed as behavioral abnormalities at 1000 mg/kg,IG administration for 7 days; assay type: organism-based; conditions: in vivo, po, 168 h, time 7 day
[16] = biological target: T1, Interferon-inducible protein AIM2 (Mus musculus) (UniProt Q91VJ1); assay: Inhibition of AIM2 inflammasome in mouse J774.A1 cells assessed as inhibition of IL-1 beta secretion at 10 uM pretreated with LPS and compound for 1 hr and later stimulated with poly (dA:dT) for 8 hrs by ELISA; assay type: cell-based; conditions: time 9.0 hrs
T1 sequence (whole entry): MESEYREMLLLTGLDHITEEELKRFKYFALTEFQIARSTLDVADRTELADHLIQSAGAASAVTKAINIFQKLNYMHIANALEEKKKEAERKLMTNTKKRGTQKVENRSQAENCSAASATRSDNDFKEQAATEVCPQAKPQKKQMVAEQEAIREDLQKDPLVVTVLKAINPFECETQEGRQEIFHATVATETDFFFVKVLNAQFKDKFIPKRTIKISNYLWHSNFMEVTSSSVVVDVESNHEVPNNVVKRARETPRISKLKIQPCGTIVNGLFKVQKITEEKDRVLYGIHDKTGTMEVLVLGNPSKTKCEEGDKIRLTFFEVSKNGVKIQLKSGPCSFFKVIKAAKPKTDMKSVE

[17] = Drug distribution in Sprague-Dawley rat liver at 1 mg/kg,iv measured for 0.5 to 2 hrs by HPLC-MS/MS analysis; assay type: ADME, organism-based; conditions: in vivo, time 0.5-2 hrs
Mus musculus [18] = assay: Anti-inflammatory activity in C57BL/6 mouse assessed as inhibition of LPS-induced IL-1beta secretion at 10 mg/kg,ip administrated for 1 hr followed by LPS stimulation for 2.5 hrs by ELISA analysis; assay type: functional, organism-based
[19] = Acute toxicity in Kunming mouse model assessed as change in body weight at 1000 mg/kg,IG administration for 7 days; assay type: organism-based; conditions: in vivo, po, 168 h, time 7 day
[20] = Drug distribution in Sprague-Dawley rat kidney at 1 mg/kg,iv measured for 0.5 to 2 hrs by HPLC-MS/MS analysis; assay type: ADME, organism-based; conditions: in vivo, time 0.5-2 hrs
[21] = Subacute toxicity in C57BL/6 mouse assessed as change in kidney weight at 10 mg/kg,ip administrated for 14 days; assay type: organism-based; conditions: in vivo, 336 h, time 14 day
[22] = Clearance in Sprague-Dawley rat at 1 mg/kg,iv measured after 24 hrs by HPLC-MS/MS analysis; assay type: ADME, organism-based; conditions: in vivo
Mus musculus [23] = assay: Anti-inflammatory activity in DSS-induced ulcerative colitis C57BL/6 mouse model assessed as increase in colon length at 10 mg/kg,ip administrated for 9 days; assay type: functional, organism-based; conditions: time 9.0 day
[24] = Subacute toxicity in C57BL/6 mouse assessed as change in colon weight at 100 mg/kg,ip administrated for 14 days; assay type: organism-based; conditions: in vivo, 336 h, time 14 day
Mus musculus [25] = assay: Anti-inflammatory activity in DSS-induced ulcerative colitis C57BL/6 mouse model assessed as reduction in disease activity index (DAI) score at 10 mg/kg,ip administrated for 9 days; assay type: functional, organism-based; conditions: time 9.0 day
[26] = Subacute toxicity in C57BL/6 mouse assessed as lung histological changes at 100 mg/kg,ip administrated for 14 days; assay type: organism-based; conditions: in vivo, 336 h, time 14 day
[27] = Subacute toxicity in C57BL/6 mouse assessed as body weight gain at 10 mg/kg,ip administrated for 14 days; assay type: organism-based; conditions: in vivo, 336 h, time 14 day
[28] = Subacute toxicity in C57BL/6 mouse assessed as spleen histological changes at 10 mg/kg,ip administrated for 14 days; assay type: organism-based; conditions: in vivo, 336 h, time 14 day
[29] = Acute toxicity in Kunming mouse model assessed as clonic convulsion at 1000 mg/kg,IG administration for 7 days; assay type: organism-based; conditions: in vivo, po, 168 h, time 7 day
[30] = Subacute toxicity in C57BL/6 mouse assessed as heart histological changes at 10 mg/kg,ip administrated for 14 days; assay type: organism-based; conditions: in vivo, 336 h, time 14 day
[31] = Subacute toxicity in C57BL/6 mouse assessed as change in liver weight at 100 mg/kg,ip administrated for 14 days; assay type: organism-based; conditions: in vivo, 336 h, time 14 day
Mus musculus [32] = assay: Anti-inflammatory activity in DSS-induced ulcerative colitis C57BL/6 mouse model assessed as reduction in crypt necrosis in colon at 10 mg/kg,ip administrated for 9 days by Hematoxylin-eosin staining based microscopic analysis; assay type: functional, organism-based; conditions: time 9.0 day
[33] = Stability of compound in rat plasma measured for 48 hrs; assay type: ADME, cell-free
[34] = Subacute toxicity in C57BL/6 mouse assessed as body weight gain at 100 mg/kg,ip administrated for 14 days; assay type: organism-based; conditions: in vivo, 336 h, time 14 day
Mus musculus [35] = assay: Anti-inflammatory activity in DSS-induced ulcerative colitis C57BL/6 mouse model assessed as decrease in IL-1beta p17 protein expression in colon at 10 mg/kg,ip administrated for 9 days by Western blotting analysis; assay type: functional, organism-based; conditions: time 9.0 day

Sequence of NLR family CARD domain-containing protein 4 (Mus musculus) (Q3UP24 whole entry, the tested form may be a part): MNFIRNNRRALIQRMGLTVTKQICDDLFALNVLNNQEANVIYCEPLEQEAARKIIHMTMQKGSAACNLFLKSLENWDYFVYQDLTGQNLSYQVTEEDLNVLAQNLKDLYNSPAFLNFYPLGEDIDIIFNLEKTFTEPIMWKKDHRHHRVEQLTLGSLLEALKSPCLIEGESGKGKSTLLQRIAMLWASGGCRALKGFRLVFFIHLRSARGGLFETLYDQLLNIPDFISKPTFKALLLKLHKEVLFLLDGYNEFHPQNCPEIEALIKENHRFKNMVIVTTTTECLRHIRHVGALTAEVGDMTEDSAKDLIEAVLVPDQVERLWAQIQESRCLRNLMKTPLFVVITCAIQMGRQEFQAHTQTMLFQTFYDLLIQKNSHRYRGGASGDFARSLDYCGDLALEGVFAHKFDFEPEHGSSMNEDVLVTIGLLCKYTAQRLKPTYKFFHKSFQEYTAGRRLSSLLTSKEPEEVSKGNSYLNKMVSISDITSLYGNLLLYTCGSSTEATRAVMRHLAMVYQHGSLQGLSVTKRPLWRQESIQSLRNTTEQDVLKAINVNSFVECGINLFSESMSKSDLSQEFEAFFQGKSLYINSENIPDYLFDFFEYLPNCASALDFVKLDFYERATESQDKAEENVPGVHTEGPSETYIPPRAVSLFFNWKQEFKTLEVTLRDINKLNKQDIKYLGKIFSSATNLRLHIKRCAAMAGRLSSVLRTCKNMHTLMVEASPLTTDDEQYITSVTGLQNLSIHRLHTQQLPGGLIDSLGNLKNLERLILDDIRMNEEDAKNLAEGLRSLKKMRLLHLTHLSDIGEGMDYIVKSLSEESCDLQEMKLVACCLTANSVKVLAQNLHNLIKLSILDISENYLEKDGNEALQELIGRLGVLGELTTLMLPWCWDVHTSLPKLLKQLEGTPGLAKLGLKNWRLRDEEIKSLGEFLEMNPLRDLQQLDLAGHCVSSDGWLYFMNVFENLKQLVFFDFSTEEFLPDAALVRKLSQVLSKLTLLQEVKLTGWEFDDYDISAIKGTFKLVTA

With `CCCNS(=O)(=O)c1ccc2c(c1)CC(N(Cc1cc(Cl)ccc1OCCOC)C(=O)c1cc3ccccc3o1)C2` (racemic) the Activity (Mus musculus [1]) was “Active”, the Activity (Mus musculus [2]) was “Active” and the Activity (Mus musculus [3]) was “Active”. The Stability [4] was “Stable”, the inhibition [5] was “inactive” and the AUC(0-inf) [6] was 213 ng·h/mL. For the same compound, the Activity [7] was “Non-Toxic”, the LD50 at 168 h [8] was 2000 mg/kg and the Activity [9] was “Non-Toxic”. For the same compound, the Activity [10] was “Non-Toxic”, the Activity [11] was “Non-Toxic” and the Activity (Mus musculus [12]) was “Active”. The Activity [13] was “Non-Toxic”, the Activity [14] was “Non-Toxic” and the Activity [15] was “Non-Toxic”. For the same compound, the inhibition [16] was “inactive”, the Drug uptake [17] was “Active” and the Activity (Mus musculus [18]) was “Active”. For the same compound, the Activity [19] was “Non-Toxic”, the Drug uptake [20] was “Active” and the Activity [21] was “Non-Toxic”. The clearance [22] was 78.4 mL/min/kg, the Activity (Mus musculus [23]) was “Active” and the Activity [24] was “Non-Toxic”. For the same compound, the Activity (Mus musculus [25]) was “Active”, the Activity [26] was “Non-Toxic” and the Activity [27] was “Toxic”. For the same compound, the Activity [28] was “Non-Toxic”, the Activity [29] was “Non-Toxic” and the Activity [30] was “Non-Toxic”. For the same compound, the Activity [31] was “Non-Toxic”, the Activity (Mus musculus [32]) was “Active” and the Stability [33] was “Stable”. The Activity [34] was “Toxic” and the Activity (Mus musculus [35]) was “Active”.
